What was measured:
[1] = test system: PCEM004a endometrial cancer cell line; experiment: Cytotoxicity assay (MTT, 72 hours, daily administration) in PCEM004a; assay type: cell-based; settings: Homo sapiens, read-out: % VIABILITY ± S.D.
Description: The combinations were effective in other human tumor cell lines and we tested in glioblastoma cell line and endometrial cancer cell Additional tests include data obtained from two independent experiments, six wells for dose.

MIAPaCa-2 cell line = experiment: Cytotoxicity assay (MTT, 72 hours, daily administration) in MIAPaCa-2; settings: Homo sapiens, MIA PaCa-2, read-out: % VIABILITY ± S.D.
Protocol: Human pancreatic ductal adenocarcinoma (PANC-1 and MIAPaCa-2) cell lines were purchased by Sigma Aldrich (Milan, Italy) and cultured in DMEM high glucose medium (EuroClone, Milan, Italy) supplemented with 10% of fetal bovine serum (FBS), 2 mM L-glutamine, 100 IU/mL penicillin, 100 mg streptomycin and 1 mM sodium pyruvate. Cell lines were maintained at 37° C. with 5% CO2 and 95% of humidity.
3×10^4 cells/mL were seeded in 96-well plates in a final volume of 100 L/well. After one day of incubation, compounds or vehicles, alone or in combination, were added and six replicates were used for each treatment and all experiments were repeated three times. In all the experiments, the treatment was daily added, after washing with fresh medium. After 72 hours cell viability was investigated by adding 0.8 mg/mL of 3-[4,5-dimethylthiazol-2-yl]-2,5 diphenyl tetrazolium bromide (MTT) (Sigma Aldrich) to the media. After 3 h the supernatant was removed, and the pellet of salt crystals was solubilized with 100 μL/well of DMSO. The absorbance of the sample against a background control was measured at 570 nm using an ELISA reader microliter plate (BioTek Instruments, Winooski, VT, USA).
Cytotoxicity in PDAC cell lines: The effect of CBD, MLT and AKBA in reducing cell viability was evaluated at 72 hours, post daily administration, in PDAC cell lines. Cells were treated with different doses of CBD, MLT and AKBA (up to 1 mg) and percentage of cell viability was evaluated by the MTT assay. […] The compounds were administered daily for 72 hours, as in previous experiments at the desired doses. […] MTT assay was used to analyse the cell cytotoxicity.

[2] = test system: pancreatic adenocarcinoma associated genes; experiment: TaqMan Array gene expression in PANC-1, normalized for GAPDH; settings: 24 hs, CBD 3.8, MLT 200, AKBA 7.5 micrograms/ml
Protocol: Total RNA from untreated or CBD, MLT, AKBA alone and in combination treated cell lines was extracted using Rneasy Mini kit (Qiagen, Milan, Italy). One microgram of total RNA from each sample was subjected to reverse transcription in a total volume of 20 μL using the High-Capacity cDNA Archive Kit (Applied Biosystem, Foster City, […], USA) according to the instructions. cDNAs were analyzed by qRT-PCR performed using an IQ5 Multicolor Real time PCR Detection system. Quantitative real-time gene expression was performed with the TaqMan® Array Human Pancreatic Adenocarcinoma 96-well Plate, containing 92 assays to pancreatic adenocarcinoma associated genes and 4 assays to candidate endogenous control genes, was purchased (Thermo Fisher, Grand Island, NY, USA) and used to evaluate the treatments in modulating PDAC-related genes (Table 1). Measurement of different housekeeping genes (GAPDH; HPRT1; GUSB) on the samples was used to normalize mRNA content. The gene expression levels of treated cell lines were expressed as relative fold compared with untreated or vehicle-treated cells.
To elucidate the molecular events induced by CBD, MLT and AKBA alone and in combination, 92 genes involved in PDAC progression and aggressiveness were evaluated by Taqman Array. Both cell lines were treated with CBD, MLT and AKBA alone and in combination, and the molecular pathways of PDAC associated gene were evaluated.
Target mRNA levels were normalized for GAPDH expression.

Compound: COc1ccc2[nH]cc(CCNC(C)=O)c2c1 [MLT, N-[2-(5-methoxy-1H-indol-3-yl)ethyl]acetamide]
- viability at 100 µg/mL [1]: 96.5 ± 8.2%
- viability at 200 µg/mL [1]: 90.4 ± 6.2%
- viability at 400 µg/mL [1]: 80.1 ± 5.3%
- viability at 800 µg/mL [1]: 31.3 ± 2.8%
- viability at 100 µg/mL (MIAPaCa-2 cell line): 100 ± 8.8%
- viability at 200 µg/mL (MIAPaCa-2 cell line): 87.8 ± 8.2%
- viability at 400 µg/mL (MIAPaCa-2 cell line): 78.2 ± 8.5%
- viability at 800 µg/mL (MIAPaCa-2 cell line): 12.5 ± 0.8%
- AKT3 mRNA relative expression ([2]; VEI 0.00): 0.00
- ARHGEF7 mRNA relative expression ([2]; VEI 0.00): 0.017
- BCL2 mRNA relative expression ([2]; VEI 0.00): 0.00
- CCND2 mRNA relative expression ([2]; VEI 0.00): 0.00
- CDKN2B mRNA relative expression ([2]; VEI 0.00): 1.65
- CYP2E1 mRNA relative expression ([2]; VEI 0.00): 0.00
- EGF mRNA relative expression ([2]; VEI 0.00): 0.00
- IGF1 mRNA relative expression ([2]; VEI 0.00): 0.00
- IL6 mRNA relative expression ([2]; VEI 0.00): 0.00
- KDR mRNA relative expression ([2]; VEI 0.00): 0.00
- KIT mRNA relative expression ([2]; VEI 0.00): 0.01
- MAPK3 mRNA relative expression ([2]; VEI 0.00): 0.00
- MMP1 mRNA relative expression ([2]; VEI 0.00): 0.07
- MMP3 mRNA relative expression ([2]; VEI 0.00): 0.00
- TGFA mRNA relative expression ([2]; VEI 0.00): 0.22
- TGFB2 mRNA relative expression ([2]; VEI 0.00): 0.00
- JAK2 mRNA relative expression ([2]; VEI 0.01): 0.01
- JAK3 mRNA relative expression ([2]; VEI 0.01): 0.00
- MMP7 mRNA relative expression ([2]; VEI 0.01): 0.01
- MMP9 mRNA relative expression ([2]; VEI 0.01): 0.04
- PK3CA mRNA relative expression ([2]; VEI 0.01): 0.00
- RAC2 mRNA relative expression ([2]; VEI 0.01): 0.01
- RB1 mRNA relative expression ([2]; VEI 0.01): 0.03
- TGFB3 mRNA relative expression ([2]; VEI 0.01): 0.00
- TGFBR1 mRNA relative expression ([2]; VEI 0.02): 0.00
- BRCA2 mRNA relative expression ([2]; VEI 0.03): 0.34
- CDKN2D mRNA relative expression ([2]; VEI 0.03): 0.04
- MDM2 mRNA relative expression ([2]; VEI 0.03): 0.00
- RHOB mRNA relative expression ([2]; VEI 0.03): 0.03
- CDKN2C mRNA relative expression ([2]; VEI 0.04): 0.14
- PK3R1 mRNA relative expression ([2]; VEI 0.04): 0.02
- PTGS2 mRNA relative expression ([2]; VEI 0.04): 0.02
- STATSB mRNA relative expression ([2]; VEI 0.04): 0.45
- MAPK1 mRNA relative expression ([2]; VEI 0.05): 0.02
- SMAD2 mRNA relative expression ([2]; VEI 0.05): 0.19
- CCND1 mRNA relative expression ([2]; VEI 0.06): 0.10
- MAP2K2 mRNA relative expression ([2]; VEI 0.06): 0.08
- PK3CD mRNA relative expression ([2]; VEI 0.06): 0.06
- TGFBR2 mRNA relative expression ([2]; VEI 0.06): 0.00
- VEGFA mRNA relative expression ([2]; VEI 0.06): 0.03
- VEGFB mRNA relative expression ([2]; VEI 0.06): 0.05
- CCNA2 mRNA relative expression ([2]; VEI 0.07): 0.07
- CCNE2 mRNA relative expression ([2]; VEI 0.07): 0.07
- EZF3 mRNA relative expression ([2]; VEI 0.07): 0.08
- SMAD4 mRNA relative expression ([2]; VEI 0.07): 0.08
- SOS1 mRNA relative expression ([2]; VEI 0.07): 0.06
- TGFB1 mRNA relative expression ([2]; VEI 0.07): 0.05
- MAP2K1 mRNA relative expression ([2]; VEI 0.08): 0.03
- MMP2 mRNA relative expression ([2]; VEI 0.08): 0.00
- VEGFC mRNA relative expression ([2]; VEI 0.08): 0.00
- CCNE1 mRNA relative expression ([2]; VEI 0.09): 0.11
- CDK2 mRNA relative expression ([2]; VEI 0.09): 0.07
- KRAS mRNA relative expression ([2]; VEI 0.09): 0.01
- RAC1 mRNA relative expression ([2]; VEI 0.09): 0.00
- REL mRNA relative expression ([2]; VEI 0.09): 0.08
- STAT2 mRNA relative expression ([2]; VEI 0.09): 0.00
- CDKN1B mRNA relative expression ([2]; VEI 0.10): 0.09
- CDKN2A mRNA relative expression ([2]; VEI 0.10): 0.16
- RELA mRNA relative expression ([2]; VEI 0.10): 0.00
- AKT1 mRNA relative expression ([2]; VEI 0.11): 0.10
- PK3CB mRNA relative expression ([2]; VEI 0.11): 0.13
- FIGF mRNA relative expression ([2]; VEI 0.14): 0.11
- TP53 mRNA relative expression ([2]; VEI 0.14): 0.29
- EZF4 mRNA relative expression ([2]; VEI 0.16): 0.16
- NFKB2 mRNA relative expression ([2]; VEI 0.16): 0.02
- EZF1 mRNA relative expression ([2]; VEI 0.17): 0.14
- SMAD3 mRNA relative expression ([2]; VEI 0.17): 0.22
- STAT1 mRNA relative expression ([2]; VEI 0.18): 0.12
- BRAF mRNA relative expression ([2]; VEI 0.22): 0.13
- BIRC5 mRNA relative expression ([2]; VEI 0.23): 0.13
- JAK1 mRNA relative expression ([2]; VEI 0.23): 0.02
- CDK4 mRNA relative expression ([2]; VEI 0.24): 0.17
- EGFR mRNA relative expression ([2]; VEI 0.24): 0.16
- RAF1 mRNA relative expression ([2]; VEI 0.25): 0.06
- CCNB1 mRNA relative expression ([2]; VEI 0.27): 0.33
- ERBB2 mRNA relative expression ([2]; VEI 0.27): 0.04
- SRC mRNA relative expression ([2]; VEI 0.27): 0.03
- GRB2 mRNA relative expression ([2]; VEI 0.31): 0.23
- BCL2L1 mRNA relative expression ([2]; VEI 0.35): 0.21
- HSP90AA1 mRNA relative expression ([2]; VEI 0.35): 0.00
- NFKB1 mRNA relative expression ([2]; VEI 0.35): 0.09
- RHOA mRNA relative expression ([2]; VEI 0.37): 0.07
- ELK1 mRNA relative expression ([2]; VEI 0.41): 0.09
- RELB mRNA relative expression ([2]; VEI 0.42): 0.06
- CDC42 mRNA relative expression ([2]; VEI 0.45): 0.00
- CDKN1A mRNA relative expression ([2]; VEI 0.49): 0.07
- AKT2 mRNA relative expression ([2]; VEI 0.50): 0.46
- HBEGF mRNA relative expression ([2]; VEI 0.53): 0.39
- NOTCH1 mRNA relative expression ([2]; VEI 1.03): 0.32
- STAT6 mRNA relative expression ([2]; VEI 1.38): 0.01
- STAT3 mRNA relative expression ([2]; VEI 4.45): 0.07
